The target of the data set is IRF5. The conditions noted are these: ASO.

“And” between values parts separate entries of the source, which are not always exact repeats. Identical values can stand only once. After the bases stand the sugars from the 5' end (letter, count) and the backbone: PS all phosphorothioate, else s phosphorothioate and o phosphodiester by linkage. Methylation of C is not given here. [mop] = methoxypropylphosphonate linkage; e = 2'-O-(2-methoxyethyl) (MOE); k = constrained ethyl (cEt); d = 2'-deoxy (DNA)

As to “CTGATATGATACCTAA (sugars k3 d2 k1 d7 k3, PS)”, the target mRNA inhibition is, setting by setting: (A-431, 0.00412 µM) 18%; (A-431, 0.01225 µM) 23%; (A-431, 0.03704 µM) 41%; (A-431, 0.11111 µM) 63%; (A-431, 0.33333 µM) 80%; (A-431, 1 µM) 75%.
Take CTGATATGATACCTAA (sugars k3 d10 k3, PS): the target mRNA inhibition was 13% (A-431, 0.00412 µM); 29% (A-431, 0.01225 µM); 54% (A-431, 0.03704 µM); 80% (A-431, 0.11111 µM); 88% (A-431, 0.33333 µM); 90% (A-431, 1 µM). Also, the target mRNA inhibition is, setting by setting: (KARPAS-229, 0.44444 µM) 42%; (KARPAS-229, 1.33333 µM) 45%; (KARPAS-229, 4 µM) 59% and 76%; (KARPAS-229, 12 µM) 77%.
In the case of “CTGATATGATACCTAA (sugars k3 d10 k3, linkages s5 [mop]1 s9)”, the target mRNA inhibition came out at 0% (A-431, 0.00412 µM); 15% (A-431, 0.01225 µM); 25% (A-431, 0.03704 µM); 54% (A-431, 0.11111 µM); 71% (A-431, 0.33333 µM); 71% (A-431, 1 µM).
Take “CTGTCACATCTCCACA (sugars k3 d9 k3 e1, PS)”: the target mRNA inhibition (KARPAS-229, 4 µM) worked out at 28%.
On to “CTGTCACATCTCCACA (sugars kkdddddddddkekek, PS)”, for which, for the setting “KARPAS-229, 4 µM”, the target mRNA inhibition came out at 23%.
Under “KARPAS-229, 4 µM”, “CTGTCACATCTCCACA (sugars kkkddddddddkekek, PS)” displayed a target mRNA inhibition of 0%.
On the same count and under the same terms, the figure for “CTTCTGCAGGGAGTCA (sugars kkddddddddddkeke, PS)” is 8%.
As to “CTTCTGCAGGGAGTCA (sugars kkdddddddddkekek, PS)”, the target mRNA inhibition (KARPAS-229, 4 µM) turned out to be 0%.
As for “CTTGGTCTTGACCTCC (sugars k2 d9 e3 k2, PS)”, under “KARPAS-229, 4 µM”, the target mRNA inhibition turned out to be 11%.
On the same count and under the same terms, with “CTTGGTCTTGACCTCC (sugars kdddddddddkekeke, PS)” the figure was 0%; with “CTTGGTCTTGACCTCC (sugars kekdddddddddeekk, PS)”, 36%.
The same measure, in the same setting: the figure for CTTTTTGCTCTAAACC (sugars k3 d10 k3, PS) is 0%; for “GAAGTGAGTCTCAAAC (sugars kdddddddddkekeke, PS)” it is 11%.
The sequence “GAGTCATGGGCTGAGG (sugars k3 d9 k3 e1, PS)” came in with a target mRNA inhibition (KARPAS-229, 4 µM) of 0%.
On the same count and under the same terms, the figure for “GAGTCATGGGCTGAGG (sugars kkddddddddddkeke, PS)” is 40%.
Still for that read-out and setting: with GAGTGAGACGAGCAAA (sugars k3 d10 k3, PS) the figure was 27%; with “GAGTGAGACGAGCAAA (sugars kkddddddddkekekk, PS)”, 17%; with “GCATTCCATATACACA (sugars k3 d9 k3 e1, PS)”, 25%.
In turn, “GCATTCCATATACACA (sugars kddddddddddkekek, PS)” came in with a target mRNA inhibition (KARPAS-229, 4 µM) of 39%.
Regarding “GCATTCCATATACACA (sugars kekdddddddddeekk, PS)”, the target mRNA inhibition (KARPAS-229, 4 µM) was determined as 48%.
On the same count and under the same terms, with “GCATTCCATATACACA (sugars kkkdddddddddkeke, PS)” the figure was 45%; with “GCATTCCATATACACA (sugars kkkddddddddkdkdk, PS)”, 0%.
Still for that read-out and setting: with GCCTTCTGCAGGGAGT (sugars k3 d10 k3, PS) the figure was 0%; with “GCTGTCACATCTCCAC (sugars k3 d9 k3 e1, PS)”, 23%; with “GCTGTCACATCTCCAC (sugars kekdddddddddeekk, PS)”, 0%.
On the same count and under the same terms, the figure for “GCTGTCACATCTCCAC (sugars kkdddddddddkekek, PS)” is 5%.
Regarding “GCTTGGTCTTGACCTC (sugars k3 d9 k3 e1, PS)”, for the setting “KARPAS-229, 4 µM”, the target mRNA inhibition came to 29%.
The same measure, in the same setting: with “GCTTGGTCTTGACCTC (sugars kdddddddddkekeke, PS)” the figure was 17%; with “GCTTGGTCTTGACCTC (sugars kkdddddddddkdkdk, PS)”, 11%.

For the origin of these results see the OligoGym collection.
